Measurements from patent publication US8563542B2 (Cyclacel Limited, priority 2007, dated 2013).
pIC50: −log10 of the molar value.

How the values were obtained:
[1] = target: PLK1 (Homo sapiens, UniProt P53350); test: PLK1 protein kinase assay (CDC25C phosphorylation, [γ-32P]-ATP); assay type: biochemical; conditions: Table 2, PLK1 IC50; class symbols; read-out: PLK1 IC50
[2] = target: T1, AA (Homo sapiens, UniProt O14965); test: AA IC50 (Table 1; no method given); assay type: biochemical; conditions: Table 2, AurA IC50; class symbols; read-out: AurA IC50
T1 sequence (O14965 1-403): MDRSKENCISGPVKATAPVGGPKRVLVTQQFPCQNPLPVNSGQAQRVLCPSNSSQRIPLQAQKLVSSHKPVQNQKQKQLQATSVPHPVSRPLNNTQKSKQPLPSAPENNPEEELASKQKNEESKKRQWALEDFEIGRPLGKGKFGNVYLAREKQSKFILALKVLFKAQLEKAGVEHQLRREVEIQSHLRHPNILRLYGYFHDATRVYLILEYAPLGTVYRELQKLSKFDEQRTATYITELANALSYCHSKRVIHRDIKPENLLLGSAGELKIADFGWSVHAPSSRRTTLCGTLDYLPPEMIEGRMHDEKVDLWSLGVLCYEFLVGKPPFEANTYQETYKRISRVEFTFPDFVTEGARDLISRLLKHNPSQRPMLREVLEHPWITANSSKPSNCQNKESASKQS

PLK1, sequence (P53350 whole entry): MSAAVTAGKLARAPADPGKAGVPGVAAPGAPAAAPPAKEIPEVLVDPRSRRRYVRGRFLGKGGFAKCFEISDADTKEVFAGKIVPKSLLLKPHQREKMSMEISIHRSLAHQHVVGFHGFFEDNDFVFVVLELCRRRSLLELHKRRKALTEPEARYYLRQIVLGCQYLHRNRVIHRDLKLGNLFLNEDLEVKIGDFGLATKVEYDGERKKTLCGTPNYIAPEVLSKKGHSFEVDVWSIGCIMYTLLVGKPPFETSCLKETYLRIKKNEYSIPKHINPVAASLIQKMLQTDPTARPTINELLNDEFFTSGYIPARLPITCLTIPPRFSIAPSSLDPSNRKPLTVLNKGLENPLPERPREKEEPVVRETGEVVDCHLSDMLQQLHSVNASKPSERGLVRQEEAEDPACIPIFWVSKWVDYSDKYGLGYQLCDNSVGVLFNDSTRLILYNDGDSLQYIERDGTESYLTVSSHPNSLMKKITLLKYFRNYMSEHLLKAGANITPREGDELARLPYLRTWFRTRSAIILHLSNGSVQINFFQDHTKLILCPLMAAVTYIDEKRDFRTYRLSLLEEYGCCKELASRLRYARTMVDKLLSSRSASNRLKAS

pIC50 [1]	pIC50 [2]	SMILES
> 5.00	> 7.00	CN1C(=O)CCN(C2CCCC2)c2nc(Nc3ccc(S(=O)(=O)N4CCOCC4)cc3)ncc21 [compound 47, 9-Cyclopentyl-5-methyl-2-[4-(morpholine-4-sulfonyl)-phenylamino]-5,7,8,9-tetrahydro-pyrimido[4,5-b][1,4]diazepin-6-one]
> 5.00	> 5.00	COc1cccc(N2CCC(=O)N(C)c3cnc(Nc4ccc(C(=O)O)cc4)nc32)c1 [compound 49, 4-[9-(3-Methoxy-phenyl)-5-methyl-6-oxo-6,7,8,9-tetrahydro-5H-pyrimido[4,5-b][1,4]diazepin-2-ylamino]-benzoic acid]
> 5.00	> 7.00	CN1C(=O)CCN(c2ccccc2F)c2nc(Nc3ccc(C(=O)O)cc3)ncc21 [compound 50, 4-[9-(2-Fluoro-phenyl)-5-methyl-6-oxo-6,7,8,9-tetrahydro-5H-pyrimido[4,5-b][1,4]diazepin-2-ylamino]-benzoic acid]
> 6.00	> 6.00	CN1C(=O)CCN(C2CCCC2)c2nc(Nc3ccc(N4CCOCC4)cc3)ncc21 [compound 51, 9-Cyclopentyl-5-methyl-2-(4-morpholin-4-yl-phenylamino)-5,7,8,9-tetrahydro-pyrimido[4,5-b][1,4]diazepin-6-one]
> 6.00	> 6.00	CN1C(=O)CCN(C2CCCC2)c2nc(Nc3cccc(S(N)(=O)=O)c3)ncc21 [compound 53, 3-(9-Cyclopentyl-5-methyl-6-oxo-6,7,8,9-tetrahydro-5H-pyrimido[4,5-b][1,4]diazepin-2-ylamino)-benzenesulfonamide]
> 7.00	> 7.00	CN1C(=O)CCN(C2CCCC2)c2nc(Nc3ccc(C(=O)O)cc3)ncc21 [compound 54, 4-(9-Cyclopentyl-5-methyl-6-oxo-6,7,8,9-tetrahydro-5H-pyrimido[4,5-b][1,4]diazepin-2-ylamino)-benzoic acid]
> 5.00	> 7.00	CN1C(=O)CCN(C2CCCC2)c2nc(Nc3ccc(S(C)(=O)=O)cc3)ncc21 [compound 55, 9-Cyclopentyl-2-(4-methanesulfonyl-phenylamino)-5-methyl-5,7,8,9-tetrahydro-pyrimido[4,5-b][1,4]diazepin-6-one]
> 6.00	> 6.00	CN1C(=O)CCN(C2CCCC2)c2nc(Nc3cccc(C(=O)O)c3)ncc21 [compound 56, 3-(9-Cyclopentyl-5-methyl-6-oxo-6,7,8,9-tetrahydro-5H-pyrimido[4,5-b][1,4]diazepin-2-ylamino)-benzoic acid]
> 5.00	> 6.00	CN1CCC(NC(=O)c2cccc(Nc3ncc4c(n3)N(C3CCCC3)CCC(=O)N4C)c2)CC1 [compound 57, 3-(9-Cyclopentyl-5-methyl-6-oxo-6,7,8,9-tetrahydro-5H-pyrimido[4,5-b][1,4]diazepin-2-ylamino)-N-(1-methyl-piperidin-4-yl)-benzamide]
> 6.00	> 7.00	COc1cc(Nc2ncc3c(n2)N(C2CCCC2)CCC(=O)N3C)ccc1C(=O)NC1CCN(C)CC1 [compound 58, 4-(9-Cyclopentyl-5-methyl-6-oxo-6,7,8,9-tetrahydro-5H-pyrimido[4,5-b][1,4]diazepin-2-ylamino)-2-methoxy-N-(1-methyl-piperidin-4-yl)-benzamide]
> 5.00	> 6.00	CN1CCC(NS(=O)(=O)c2ccc(Nc3ncc4c(n3)N(C3CCCC3)CCC(=O)N4C)cc2)CC1 [compound 61, 4-(9-Cyclopentyl-5-methyl-6-oxo-6,7,8,9-tetrahydro-5H-pyrimido[4,5-b][1,4]diazepin-2-ylamino)-N-(1-methyl-piperidin-4-yl)-benzenesulfonamide]
> 5.00	> 7.00	CN1C(=O)CCN(C2CCCC2)c2nc(Nc3ccc(S(N)(=O)=O)cc3)ncc21 [compound 63, 4-(9-Cyclopentyl-5-methyl-6-oxo-6,7,8,9-tetrahydro-5H-pyrimido[4,5-b][1,4]diazepin-2-ylamino)-benzenesulfonamide]
> 5.00	> 6.00	CN1C(=O)CCN(C2CCCC2)c2nc(Nc3ccccc3)ncc21 [compound 70, 9-Cyclopentyl-5-methyl-2-phenylamino-5,7,8,9-tetrahydro-pyrimido[4,5-b][1,4]diazepin-6-one]
> 6.00	> 7.00	CCC1CN(C2CCCC2)c2nc(Nc3ccc4c(c3)CS(=O)(=O)C4)ncc2N(C)C1=O (centres unmarked) [compound 74, 9-Cyclopentyl-2-(2,2-dioxo-2,3-dihydro-1H-2lambda*6*-benzo[c]thiophen-5-ylamino)-7-ethyl-5-methyl-5,7,8,9-tetrahydro-pyrimido[4,5-b][1,4]diazepin-6-one]
> 6.00	> 7.00	CC1CN(C2CCCC2)c2nc(Nc3ccc4c(c3)CS(=O)(=O)C4)ncc2N(C)C1=O (centres unmarked) [compound 76, 9-Cyclopentyl-2-(2,2-dioxo-2,3-dihydro-1H-2lambda*6*-benzo[c]thiophen-5-ylamino)-5,7-dimethyl-5,7,8,9-tetrahydro-pyrimido[4,5-b][1,4]diazepin-6-one]
> 6.00	> 6.00	CN1C(=O)C(C)(C)CN(C2CCCC2)c2nc(Nc3ccc4c(c3)CS(=O)(=O)C4)ncc21 [compound 77, 9-Cyclopentyl-2-(2,2-dioxo-2,3-dihydro-1H-2lambda*6*-benzo[c]thiophen-5-ylamino)-5,7,7-trimethyl-5,7,8,9-tetrahydro-pyrimido[4,5-b][1,4]diazepin-6-one]
> 6.00	> 7.00	CN1C(=O)C2(CC2)CN(C2CCCC2)c2nc(Nc3ccc4c(c3)CS(=O)(=O)C4)ncc21 [compound 78, (9-Cyclopentyl-2-(2,2-dioxo-2,3-dihydro-1H-2lambda*6*-benzo[c]thiophen-5-ylamino)5-methyl-6-oxo-6,7,8,9-tetrahydro-5H-spiro[pyrimido[4,5-b][1,4]diazepin-3,1′-cyclopropane]]
> 6.00	> 7.00	CN1C(=O)CCN(C2CCCC2)c2nc(Nc3ccc(C(N)=O)cc3)ncc21 [compound 83, 4-(9-Cyclopentyl-5-methyl-6-oxo-6,7,8,9-tetrahydro-5H-pyrimido[4,5-b][1,4]diazepin-2-ylamino)-benzamide]
> 6.00	> 5.00	CN1C(=O)C2(CC2)CN(C2CCCC2)c2nc(Nc3ccc(C(=O)O)cc3)ncc21 [compound 84, 4-(9-Cyclopentyl-5-methyl-6-oxo-6,7,8,9-tetrahydro-5H-spiro[pyrimido[4,5-b][1,4]diazepin-3,1′-cyclopropane]-2-ylamino)-benzoic acid]
> 5.00	> 7.00	CN(C)C(=O)c1ccc(Nc2ncc3c(n2)N(C2CCCC2)CCC(=O)N3C)cc1 [compound 85, 4-(9-Cyclopentyl-5-methyl-6-oxo-6,7,8,9-tetrahydro-5H-pyrimido[4,5-b][1,4]diazepin-2-ylamino)-N,N-dimethyl-benzamide]
> 5.00	> 7.00	CC(=O)NCc1ccc(Nc2ncc3c(n2)N(C2CCCC2)CCC(=O)N3C)cc1 [compound 86, N-[4-(9-Cyclopentyl-5-methyl-6-oxo-6,7,8,9-tetrahydro-5H-pyrimido[4,5-b][1,4]diazepin-2-ylamino)-benzyl]-acetamide]
> 7.00	> 5.00	CNC(=O)c1ccc(Nc2ncc3c(n2)N(C2CCCC2)CCC(=O)N3C)c(OC)c1 [compound 87, 4-(9-Cyclopentyl-5-methyl-6-oxo-6,7,8,9-tetrahydro-5H-pyrimido[4,5-b][1,4]diazepin-2-ylamino)-3-methoxy-N-methyl-benzamide]
> 6.00	> 5.00	COc1cc(C(=O)N(C)C)ccc1Nc1ncc2c(n1)N(C1CCCC1)CCC(=O)N2C [compound 88, 4-(9-Cyclopentyl-5-methyl-6-oxo-6,7,8,9-tetrahydro-5H-pyrimido[4,5-b][1,4]diazepin-2-ylamino)-3-methoxy-N,N-dimethyl-benzamide]
> 7.00	> 5.00	COc1cc(C(N)=O)ccc1Nc1ncc2c(n1)N(C1CCCC1)CCC(=O)N2C [compound 89, 4-(9-Cyclopentyl-5-methyl-6-oxo-6,7,8,9-tetrahydro-5H-pyrimido[4,5-b][1,4]diazepin-2-ylamino)-3-methoxy-benzamide]
> 5.00	> 6.00	CC(=O)NCc1cccc(Nc2ncc3c(n2)N(C2CCCC2)CCC(=O)N3C)c1 [compound 90, N-[3-(9-Cyclopentyl-5-methyl-6-oxo-6,7,8,9-tetrahydro-5H-pyrimido[4,5-b][1,4]diazepin-2-ylamino)-benzyl]-acetamide]
> 5.00	> 6.00	CN1C(=O)CCN(C2CCCC2)c2nc(Nc3cccc(CN)c3)ncc21 [compound 91, 2-(3-Aminomethyl-phenylamino)-9-cyclopentyl-5-methyl-5,7,8,9-tetrahydro-pyrimido[4,5-b][1,4]diazepin-6-one]
> 5.00	> 7.00	CN1C(=O)CCN(C2CCCC2)c2nc(Nc3ccc(S(=O)(=O)NCc4ccccc4)cc3)ncc21 [compound 93, N-Benzyl-4-(9-cyclopentyl-5-methyl-6-oxo-6,7,8,9-tetrahydro-5H-pyrimido[4,5-b][1,4]diazepin-2-ylamino)-benzenesulfonamide]
> 5.00	> 7.00	CNS(=O)(=O)c1ccc(Nc2ncc3c(n2)N(C2CCCC2)CCC(=O)N3C)cc1 [compound 96, 4-(9-Cyclopentyl-5-methyl-6-oxo-6,7,8,9-tetrahydro-5H-pyrimido[4,5-b][1,4]diazepin-2-ylamino)-N-methyl-benzenesulfonamide]
